Data as given in patent US11642342B2, “Combinations of estrogen receptor degraders and cyclin-dependent kinase inhibitors for treating cancer” (Accutar Biotechnology, priority 2019, dated 2023).

How the values were obtained:
[1] = system: Tamoxifen-resistant MCF7 human xenograft tumors; assay: Anti-tumor efficacy in tamoxifen-resistant MCF7 human xenograft tumors; assay type: in vivo; conditions: tamoxifen-resistant MCF7 xenograft (passage 9), BALB/c nude mouse, treated for 28; versus each agent alone
Experimental: Tamoxifen-resistant MCF-7 cells were subcutaneously implanted to establish cell line-derived xenograft tumors. […] This tumor was then defined as passage 0. The tumor fragments were constantly implanted into new animals (per passage) with 30 mg/kg Tamoxifen treatment. For the efficacy study, the passage 9 tamoxifen-resistant tumor fragments (˜30 mm3) were inoculated subcutaneously at the right flank of each BALB/c nude mouse, which has been implanted with 17β-estradiol (0.36 mg) tablet subcutaneously in the left flank three days before. When the average tumor volume reached approximately 175 mm3, the animals were randomized and treated for 28. Tamoxifen-resistant MCF7 human xenograft tumors were treated with an ER degrader 160b alone, or with a CDK4/6 inhibitor, Palbociclib, alone, or with the combination of ER degrader 160b and Palbociclib.

ER-positive T47D cells = assay: T47D cell growth inhibition (CellTiter-Glo, 6 days), ER degrader plus CDK4/6 inhibitor; assay type: cell-based, human
[2] = system: MCF7 human xenograft tumors; assay: Anti-tumor efficacy in MCF7 human xenograft tumors; assay type: in vivo; conditions: BALB/c nude mouse, 17β-estradiol tablet, treated for 21 days, versus each agent alone
Experimental: MCF-7 cells, a breast cancer cell cline, (10×10^6) in 0.1 mL of PBS mixed with 0.1 mL matrigel (total 0.2 mL) were inoculated subcutaneously at the right flank of each mouse, which has been implanted with 17β-estradiol (0.18 mg) tablet subcutaneously in the left flank three days before. When the average tumor volume reaches approximately 175 mm^3, the animals were randomized and treatment was started.
MCF-7 tumor cells (10×10^6) in 0.1 mL of PBS mixed with 0.1 mL matrigel (total 0.2 mL) were inoculated subcutaneously at the right flank of each BALB/c nude mouse, which has been implanted with 17β-estradiol (0.18 mg) tablet subcutaneously in the left flank three days before. When the average tumor volume reached approximately 175 mm^3, the animals were randomized and treated for 21 days with an ER degrader 160a alone, or with a CDK4/6 inhibitor, Palbociclib, alone, or with the combination of ER degrader 160a and Palbociclib.
MCF-7 tumor cells (10×10^6) in 0.1 mL of PBS mixed with 0.1 mL matrigel (total 0.2 mL) were inoculated subcutaneously at the right flank of each BALB/c nude mouse, which has been implanted with 17β-estradiol (0.18 mg) tablet subcutaneously in the left flank three days before. […]

SMILES | tumor growth inhibition, combination with Palbociclib [1] | cell growth inhibition, combination with Abemaciclib (ER-positive T47D cells; ER degrader at increasing concentrations combined with Abemaciclib 10, 30, 100 nM, versus single agent) | cell growth inhibition, combination with Palbociclib (ER-positive T47D cells; ER degrader at increasing concentrations combined with Palbociclib 10, 30, 100 nM, versus each agent alone) | tumor growth inhibition, combination with Palbociclib [2]
CC/C(=C(\c1ccc(O)cc1)c1ccc(N2CCC(CN3CCN(c4ccc5c(c4)CN([C@H]4CCC(=O)NC4=O)C5=O)CC3)CC2)cc1)c1ccccc1 [160b] | synergizes with CDK4/6 inhibitor Palbociclib in vivo to inhibit tumor growth with greater efficacy than the ER degrader or CDK4/6 inhibitor alone |  |  | 
CCC(=C(c1ccc(O)cc1)c1ccc(N2CCC(CN3CCN(c4ccc5c(c4)CN([C@H]4CCC(=O)NC4=O)C5=O)CC3)CC2)cc1)c1ccccc1 [160a, (E)/(Z)-(S)-3-(5-(4-((1-(4-(1-(4-hydroxyphenyl)-2-phenylbut-1-en-1-yl)phenyl)piperidin-4-yl)methyl)piperazin-1-yl)-1-oxoisoindolin-2-yl)piperidine-2,6-dione] |  | synergizes with CDK4/6 inhibitor Abemaciclib in vitro to inhibit cell growth with greater efficacy than the ER degrader alone | synergizes with CDK4/6 inhibitor Palbociclib in vitro to inhibit cell growth with greater efficacy than the ER degrader or CDK4/6 inhibitor alone | synergizes with CDK4/6 inhibitor Palbociclib in vivo to inhibit tumor growth with greater efficacy than the ER degrader or CDK4/6 inhibitor alone
